Data published in the kinase profiling compilation of Christmann-Franck et al. (2016).

Legend:
Test in all cases: radiometric filter-binding kinase assay
AKT1 (human) = AKT1 (human) (UniProt P31749); details: ATP 5 µM
[1] = tested on: AKT1 (human), P31749 [S473D]; details: compound 10.0 µM; ATP 5 µM
BRSK2 (human) = BRSK2 (human) (UniProt Q8IWQ3); details: compound 1.0 µM; ATP 50 µM
CAMKK2 (human) = CAMKK2 (human) (UniProt Q96RR4); details: compound 10.0 µM; ATP 20 µM
CDK2 CCNA2 (human) = CDK2 CCNA2 (human) (UniProt P24941+P20248); details: compound 1.0 µM; ATP 20 µM
CHEK1 (human) = CHEK1 (human) (UniProt O14757); details: compound 10.0 µM; ATP 20 µM
CHEK2 (human) = CHEK2 (human) (UniProt O96017); details: compound 10.0 µM; ATP 20 µM
CSK (human) = CSK (human) (UniProt P41240); details: compound 1.0 µM; ATP 20 µM
HIPK2 (human) = HIPK2 (human) (UniProt Q9H2X6); details: ATP 5 µM
IKBKE (human) = IKBKE (human) (UniProt Q14164); details: ATP 50 µM
LCK (mouse) = details: ATP 50 µM, accession and sequence are those of the human protein
MAP2K1 (human) = MAP2K1 (human) (UniProt Q02750); details: compound 1.0 µM; ATP 5 µM
MAPK11 (human) = MAPK11 (human) (UniProt Q15759); details: compound 10.0 µM; ATP 20 µM
MAPK3 (human) = MAPK3 (human) (UniProt P27361); details: ATP 5 µM
MAPKAPK5 (human) = MAPKAPK5 (human) (UniProt Q8IW41); details: ATP 20 µM
PAK6 (human) = PAK6 (human) (UniProt Q9NQU5); details: ATP 20 µM
PIM1 (human) = PIM1 (human) (UniProt P11309); details: ATP 20 µM
PIM2 (human) = PIM2 (human) (UniProt Q9P1W9); details: ATP 5 µM
PIM3 (human) = PIM3 (human) (UniProt Q86V86); details: compound 10.0 µM; ATP 20 µM
[2] = target: PRKACA or PRKACB or PRKACG (human) (UniProt P22694+P22612+P17612); details: ATP 20 µM
RPS6KA1 KD1 KD2 (human) = RPS6KA1 KD1 KD2 (human) (UniProt Q15418); details: ATP 50 µM
RPS6KA3 KD1 KD2 (human) = RPS6KA3 KD1 KD2 (human) (UniProt P51812); details: ATP 50 µM
[3] = tested on: RPS6KB1 (human), P23443 [T412E]; details: ATP 20 µM
[4] = tested on: SGK1 (human), O00141 [S422D]; details: compound 10.0 µM; ATP 20 µM
SRC (chicken) = details: compound 10.0 µM; ATP 50 µM; accession and sequence are those of the human protein
STK3 (human) = STK3 (human) (UniProt Q13188); details: compound 10.0 µM; ATP 20 µM
TBK1 (human) = TBK1 (human) (UniProt Q9UHD2); details: compound 1.0 µM; ATP 50 µM

Chain of RPS6KA1 KD1 KD2 (human) (Q15418 whole entry, looked up): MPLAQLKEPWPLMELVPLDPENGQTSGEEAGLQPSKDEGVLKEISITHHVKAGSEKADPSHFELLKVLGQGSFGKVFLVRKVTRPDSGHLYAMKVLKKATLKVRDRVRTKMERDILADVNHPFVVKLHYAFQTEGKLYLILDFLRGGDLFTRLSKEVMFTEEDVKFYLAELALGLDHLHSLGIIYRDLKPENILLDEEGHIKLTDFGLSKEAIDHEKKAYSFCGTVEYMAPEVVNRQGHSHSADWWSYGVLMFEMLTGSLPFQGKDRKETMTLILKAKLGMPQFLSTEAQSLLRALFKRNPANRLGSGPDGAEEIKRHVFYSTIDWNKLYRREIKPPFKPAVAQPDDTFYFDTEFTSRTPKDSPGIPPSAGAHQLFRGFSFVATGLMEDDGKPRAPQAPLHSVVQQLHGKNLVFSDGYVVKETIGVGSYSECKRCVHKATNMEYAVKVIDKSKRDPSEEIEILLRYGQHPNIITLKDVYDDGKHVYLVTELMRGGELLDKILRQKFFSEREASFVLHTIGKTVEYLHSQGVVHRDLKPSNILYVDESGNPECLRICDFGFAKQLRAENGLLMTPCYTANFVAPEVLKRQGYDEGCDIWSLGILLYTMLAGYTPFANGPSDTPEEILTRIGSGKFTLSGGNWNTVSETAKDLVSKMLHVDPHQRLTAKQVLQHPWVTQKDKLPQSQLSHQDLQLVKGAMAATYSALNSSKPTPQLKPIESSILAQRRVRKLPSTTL
Chain of PIM2 (human) (Q9P1W9 whole entry, looked up): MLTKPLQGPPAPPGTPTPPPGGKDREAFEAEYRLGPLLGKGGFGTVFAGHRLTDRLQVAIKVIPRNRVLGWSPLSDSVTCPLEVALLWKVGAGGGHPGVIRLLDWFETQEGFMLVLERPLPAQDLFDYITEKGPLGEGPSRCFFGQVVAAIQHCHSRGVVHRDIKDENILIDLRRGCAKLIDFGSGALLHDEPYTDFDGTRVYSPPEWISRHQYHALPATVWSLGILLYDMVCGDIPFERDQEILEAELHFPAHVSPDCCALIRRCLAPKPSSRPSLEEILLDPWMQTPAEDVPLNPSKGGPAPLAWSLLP
Chain of HIPK2 (human) (Q9H2X6 whole entry, looked up): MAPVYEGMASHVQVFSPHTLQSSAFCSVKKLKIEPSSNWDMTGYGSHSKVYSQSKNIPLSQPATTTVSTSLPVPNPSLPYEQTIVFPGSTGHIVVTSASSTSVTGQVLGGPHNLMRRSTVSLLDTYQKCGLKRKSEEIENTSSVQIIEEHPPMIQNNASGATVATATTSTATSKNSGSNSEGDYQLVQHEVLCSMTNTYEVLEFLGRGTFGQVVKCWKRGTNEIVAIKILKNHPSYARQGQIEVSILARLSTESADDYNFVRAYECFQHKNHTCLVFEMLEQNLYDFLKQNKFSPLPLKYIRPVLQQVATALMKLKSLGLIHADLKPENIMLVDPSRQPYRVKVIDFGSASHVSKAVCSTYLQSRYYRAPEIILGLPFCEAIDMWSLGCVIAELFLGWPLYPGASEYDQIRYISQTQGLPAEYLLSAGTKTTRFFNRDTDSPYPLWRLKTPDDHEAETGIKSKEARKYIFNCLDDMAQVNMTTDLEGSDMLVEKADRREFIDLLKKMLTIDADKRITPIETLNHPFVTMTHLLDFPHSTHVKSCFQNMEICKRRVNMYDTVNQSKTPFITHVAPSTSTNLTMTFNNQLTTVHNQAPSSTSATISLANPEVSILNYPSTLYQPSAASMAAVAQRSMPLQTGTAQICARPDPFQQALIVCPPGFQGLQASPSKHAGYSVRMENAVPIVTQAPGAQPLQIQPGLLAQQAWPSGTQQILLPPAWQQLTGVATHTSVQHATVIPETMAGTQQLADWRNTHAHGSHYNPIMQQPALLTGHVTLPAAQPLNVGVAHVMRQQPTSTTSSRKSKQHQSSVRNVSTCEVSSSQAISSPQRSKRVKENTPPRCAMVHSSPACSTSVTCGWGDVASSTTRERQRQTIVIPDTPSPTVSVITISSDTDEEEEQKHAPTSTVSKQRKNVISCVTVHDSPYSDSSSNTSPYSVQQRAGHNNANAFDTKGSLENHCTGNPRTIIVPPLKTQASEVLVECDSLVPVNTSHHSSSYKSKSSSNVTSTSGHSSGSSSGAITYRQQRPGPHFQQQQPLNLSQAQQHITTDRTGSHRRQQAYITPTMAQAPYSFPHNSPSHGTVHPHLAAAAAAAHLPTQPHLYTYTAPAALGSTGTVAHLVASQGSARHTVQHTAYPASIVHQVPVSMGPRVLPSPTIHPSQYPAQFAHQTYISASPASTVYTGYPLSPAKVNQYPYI
Chain of RPS6KA3 KD1 KD2 (human) (P51812 whole entry, looked up): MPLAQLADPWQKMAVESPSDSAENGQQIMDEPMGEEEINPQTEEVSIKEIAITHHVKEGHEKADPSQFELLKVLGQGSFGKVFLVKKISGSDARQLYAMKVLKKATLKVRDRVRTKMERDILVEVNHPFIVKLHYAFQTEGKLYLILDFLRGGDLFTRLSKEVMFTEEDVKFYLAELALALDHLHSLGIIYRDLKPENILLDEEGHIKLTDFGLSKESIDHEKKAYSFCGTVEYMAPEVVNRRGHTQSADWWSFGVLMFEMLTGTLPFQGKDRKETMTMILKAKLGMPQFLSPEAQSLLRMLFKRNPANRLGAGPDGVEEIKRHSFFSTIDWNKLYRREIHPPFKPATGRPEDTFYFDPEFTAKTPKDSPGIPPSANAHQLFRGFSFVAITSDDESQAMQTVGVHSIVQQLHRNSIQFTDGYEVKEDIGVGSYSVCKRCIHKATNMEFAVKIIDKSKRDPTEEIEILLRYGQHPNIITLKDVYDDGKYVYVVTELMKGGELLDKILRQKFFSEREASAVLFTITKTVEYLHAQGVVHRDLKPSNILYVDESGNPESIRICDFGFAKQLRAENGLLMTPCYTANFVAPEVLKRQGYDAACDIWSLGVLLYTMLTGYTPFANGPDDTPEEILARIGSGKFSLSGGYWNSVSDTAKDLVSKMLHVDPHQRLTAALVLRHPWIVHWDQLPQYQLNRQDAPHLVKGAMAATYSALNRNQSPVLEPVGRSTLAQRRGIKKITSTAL
Chain of MAPKAPK5 (human) (Q8IW41 whole entry, looked up): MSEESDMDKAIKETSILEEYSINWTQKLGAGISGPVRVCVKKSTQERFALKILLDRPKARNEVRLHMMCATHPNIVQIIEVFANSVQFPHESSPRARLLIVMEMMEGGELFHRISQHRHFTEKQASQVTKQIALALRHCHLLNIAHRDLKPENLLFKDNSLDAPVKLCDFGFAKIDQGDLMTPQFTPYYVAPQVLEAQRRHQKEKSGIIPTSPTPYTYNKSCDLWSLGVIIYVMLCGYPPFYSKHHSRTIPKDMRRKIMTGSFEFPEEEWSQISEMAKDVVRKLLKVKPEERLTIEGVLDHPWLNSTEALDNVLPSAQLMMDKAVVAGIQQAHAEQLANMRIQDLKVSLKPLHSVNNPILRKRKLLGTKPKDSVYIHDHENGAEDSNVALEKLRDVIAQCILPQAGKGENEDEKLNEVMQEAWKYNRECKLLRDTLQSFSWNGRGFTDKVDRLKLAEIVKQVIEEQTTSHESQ
Chain of IKBKE (human) (Q14164 whole entry, looked up): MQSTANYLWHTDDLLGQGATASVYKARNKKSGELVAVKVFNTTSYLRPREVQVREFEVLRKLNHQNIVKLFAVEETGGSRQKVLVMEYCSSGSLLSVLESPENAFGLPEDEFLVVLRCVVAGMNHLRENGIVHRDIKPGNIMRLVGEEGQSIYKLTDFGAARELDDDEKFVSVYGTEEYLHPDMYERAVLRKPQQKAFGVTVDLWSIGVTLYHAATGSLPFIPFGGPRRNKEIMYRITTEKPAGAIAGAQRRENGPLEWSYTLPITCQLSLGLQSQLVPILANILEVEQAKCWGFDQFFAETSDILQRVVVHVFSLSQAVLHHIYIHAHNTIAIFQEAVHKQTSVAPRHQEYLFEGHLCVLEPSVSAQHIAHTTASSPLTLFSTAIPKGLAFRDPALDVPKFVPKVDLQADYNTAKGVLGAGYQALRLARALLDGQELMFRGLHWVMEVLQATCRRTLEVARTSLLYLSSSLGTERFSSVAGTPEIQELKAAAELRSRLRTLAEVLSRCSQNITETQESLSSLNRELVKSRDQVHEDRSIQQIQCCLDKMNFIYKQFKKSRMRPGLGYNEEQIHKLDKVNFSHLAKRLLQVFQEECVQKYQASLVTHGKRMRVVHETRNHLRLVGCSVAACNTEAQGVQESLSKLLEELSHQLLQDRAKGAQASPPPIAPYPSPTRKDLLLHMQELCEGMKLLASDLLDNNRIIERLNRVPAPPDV
Chain of AKT1 (human) (P31749 whole entry, looked up): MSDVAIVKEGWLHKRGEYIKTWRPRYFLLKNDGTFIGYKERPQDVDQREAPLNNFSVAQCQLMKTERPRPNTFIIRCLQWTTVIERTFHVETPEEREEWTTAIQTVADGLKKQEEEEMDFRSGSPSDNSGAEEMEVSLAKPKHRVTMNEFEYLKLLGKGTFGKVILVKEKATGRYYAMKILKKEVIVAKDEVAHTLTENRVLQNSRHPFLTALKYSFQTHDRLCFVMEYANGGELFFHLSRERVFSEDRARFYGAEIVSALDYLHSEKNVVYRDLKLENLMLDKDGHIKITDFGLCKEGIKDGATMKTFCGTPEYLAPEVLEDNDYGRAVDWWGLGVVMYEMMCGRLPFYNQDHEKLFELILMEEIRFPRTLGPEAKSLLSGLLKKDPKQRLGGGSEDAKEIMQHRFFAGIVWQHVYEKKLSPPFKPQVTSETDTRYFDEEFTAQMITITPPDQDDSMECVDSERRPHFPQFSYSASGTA
Chain of MAPK3 (human) (P27361 whole entry, looked up): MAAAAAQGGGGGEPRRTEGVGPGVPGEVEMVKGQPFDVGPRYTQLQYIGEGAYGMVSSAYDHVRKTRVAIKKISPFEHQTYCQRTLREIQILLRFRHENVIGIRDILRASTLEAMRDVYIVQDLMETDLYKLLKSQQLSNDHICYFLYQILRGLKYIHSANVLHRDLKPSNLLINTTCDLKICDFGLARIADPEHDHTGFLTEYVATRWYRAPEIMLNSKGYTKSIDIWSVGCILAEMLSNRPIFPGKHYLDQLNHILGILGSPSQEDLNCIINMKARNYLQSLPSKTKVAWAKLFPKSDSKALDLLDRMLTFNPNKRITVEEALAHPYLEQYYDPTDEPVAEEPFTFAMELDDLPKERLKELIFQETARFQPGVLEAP

residual activity (AKT1 (human); compound 1.0 µM): 22%
residual activity (AKT1 (human); compound 10.0 µM): 8%
residual activity [1]: 64%
residual activity (BRSK2 (human)): 96%
residual activity (CAMKK2 (human)): 108%
residual activity (CDK2 CCNA2 (human)): 97%
residual activity (CHEK1 (human)): 85%
residual activity (CHEK2 (human)): 83%
residual activity (CSK (human)): 87%
residual activity (HIPK2 (human); compound 1.0 µM): 102%
residual activity (HIPK2 (human); compound 10.0 µM): 85%
residual activity (IKBKE (human); compound 1.0 µM): 87%
residual activity (IKBKE (human); compound 10.0 µM): 67%
residual activity (LCK (mouse); compound 1.0 µM): 84%
residual activity (LCK (mouse); compound 10.0 µM): 65%
residual activity (MAP2K1 (human)): 91%
residual activity (MAPK11 (human)): 114%
residual activity (MAPK3 (human); compound 1.0 µM): 93%
residual activity (MAPK3 (human); compound 10.0 µM): 100%
residual activity (MAPKAPK5 (human); compound 1.0 µM): 85%
residual activity (MAPKAPK5 (human); compound 10.0 µM): 79%
residual activity (PAK6 (human); compound 1.0 µM): 116%
residual activity (PAK6 (human); compound 10.0 µM): 92%
residual activity (PIM1 (human); compound 1.0 µM): 80%
residual activity (PIM1 (human); compound 10.0 µM): 57%
residual activity (PIM2 (human); compound 1.0 µM): 88%
residual activity (PIM2 (human); compound 10.0 µM): 89%
residual activity (PIM3 (human)): 60%
residual activity ([2]; compound 1.0 µM): 91%
residual activity ([2]; compound 10.0 µM): 77%
residual activity (RPS6KA1 KD1 KD2 (human); compound 1.0 µM): 98%
residual activity (RPS6KA1 KD1 KD2 (human); compound 10.0 µM): 67%
residual activity (RPS6KA3 KD1 KD2 (human); compound 1.0 µM): 80%
residual activity (RPS6KA3 KD1 KD2 (human); compound 10.0 µM): 74%
residual activity ([3]; compound 1.0 µM): 100%
residual activity ([3]; compound 10.0 µM): 72%
residual activity [4]: 82%
residual activity (SRC (chicken)): 118%
residual activity (STK3 (human)): 78%
residual activity (TBK1 (human)): 101%
SMILES: CC(C)(N)c1ccc(-c2nc3ccccc3nc2-c2ccccc2)cc1
